In patent US20060100431A1, “Biologically active compounds” (Amura Therapeutics Limited, priority 2002, published 2006):

How the values were obtained:
Format in all cases: biochemical
human cathepsin B = target: T1, human cathepsin B (Homo sapiens, UniProt P07858); assay: Cathepsin B peptidase activity assay (Ki); settings: read-out: Ki, inhibitors of cathepsin B
T1 construct: purchased CN Biosciences
Outline: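 Buffer: 10 mM bis-tris-propane pH 6.5, 1 mM EDTA, 5 mM 2-mercaptoethanol, 1 mM CaCl2; DMSO <1%. Ki assumed reversible, pure-competitive, from Ki^app=Ki(1+[So]/KM^app) by non-linear regression.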

Wild-type cruzipain = Wild-type cruzipain (Trypanosoma cruzi, UniProt P25779); assay: Trypanosoma cruzi cruzipain peptidase activity assay (Ki); settings: read-out: Ki, inhibitors of cruzain and cruzipains
Outline: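 Native cruzipain from T. cruzi Dm28 epimastigotes, 2.5 nM, in 100 mM sodium phosphate pH 6.75 with 1 mM EDTA and 10 mM L-cysteine, 25 °C, DMSO <1%. Rates taken from continuous fluorogenic substrate read; Ki by regression assuming reversible pure-competitive inhibition.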

Bovine cathepsin S = target: T2, Bovine cathepsin S (Bos taurus, UniProt P25326); assay: Cathepsin S peptidase activity assay, bovine enzyme (Ki); settings: species of cathepsin S not given; read-out: Ki, inhibitors of cathepsin S
T2 construct: purchased CN Biosciences
Outline: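 Bovine cathepsin S activity followed by fluorescence increase from substrate conversion to product over time, enzyme added to start the reaction, at 25±1° C. Buffer 10 mM bis-tris-propane pH 6.5 with 1 mM EDTA, 5 mM 2-mercaptoethanol, 1 mM CaCl2; DMSO kept below 1% (vol./vol.).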

CPB2.8ΔCTE = target: T3, CPB2.8ΔCTE (Leishmania mexicana, UniProt P36400); assay: Leishmania mexicana cysteine protease B (CPB) peptidase activity assay (Ki); settings: Ki, inhibitors of Leismania mexicana CPB protease
T3 construct: Wild-type recombinant CPB without the C-terminal extention (i.e. CPB2.8ΔCTE); Dr. Jeremy Mottram (Wellcome Centre for Molecular Parasitology, University of Glasgow)
Outline: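 Apparent Ki was derived by regression of activity against inhibitor concentration, assuming pure-competitive reversible binding. Reaction: 0.25 nM CPB lacking the C-terminal extension, pH 5.5 acetate buffer (1 mM EDTA, 200 mM NaCl, 10 mM DTT), 25 °C, followed by continuous substrate fluorescence.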

Measured: Ki

T2 sequence (P25326 115-331): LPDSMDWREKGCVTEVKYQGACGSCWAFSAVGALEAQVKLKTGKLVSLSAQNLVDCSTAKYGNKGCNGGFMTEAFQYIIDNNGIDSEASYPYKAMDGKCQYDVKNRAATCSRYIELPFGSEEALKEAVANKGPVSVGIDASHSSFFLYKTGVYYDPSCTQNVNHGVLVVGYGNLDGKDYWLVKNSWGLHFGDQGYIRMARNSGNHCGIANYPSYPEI
T3 sequence (P36400 126-343, stated change not applied): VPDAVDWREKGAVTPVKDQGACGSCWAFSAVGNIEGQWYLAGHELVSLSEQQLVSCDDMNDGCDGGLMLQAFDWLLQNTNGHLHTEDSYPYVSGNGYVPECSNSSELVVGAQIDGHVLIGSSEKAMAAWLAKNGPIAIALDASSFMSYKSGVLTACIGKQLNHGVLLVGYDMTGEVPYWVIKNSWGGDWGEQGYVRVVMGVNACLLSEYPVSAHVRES
Sequence of Wild-type cruzipain (P25779 whole entry): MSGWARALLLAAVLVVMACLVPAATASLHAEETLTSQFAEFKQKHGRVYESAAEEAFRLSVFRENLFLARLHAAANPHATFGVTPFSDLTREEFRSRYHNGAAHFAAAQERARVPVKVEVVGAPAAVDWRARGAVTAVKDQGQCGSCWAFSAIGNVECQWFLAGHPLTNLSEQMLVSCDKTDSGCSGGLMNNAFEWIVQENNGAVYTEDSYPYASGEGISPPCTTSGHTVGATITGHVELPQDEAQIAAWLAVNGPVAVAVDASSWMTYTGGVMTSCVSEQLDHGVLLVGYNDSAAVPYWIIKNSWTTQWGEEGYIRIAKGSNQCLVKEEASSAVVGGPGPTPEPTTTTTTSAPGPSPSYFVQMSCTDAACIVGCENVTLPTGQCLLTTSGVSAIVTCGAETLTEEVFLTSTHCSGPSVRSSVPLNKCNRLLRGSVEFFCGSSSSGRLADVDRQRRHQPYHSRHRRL

O=C(N[C@@H](Cc1cc(F)cc(F)c1)C(=O)N1CC[C@@H]2[C@H]1C(=O)CN2C(=O)c1csc2ccccc12)C(c1ccccc1)c1ccccc1 [Example 316, (3aR,6aS)-N-[(1S)-2-[4-(Benzo[b]thiophene-3-carbonyl)-6-oxo-hexahydro-pyrrolo[3,2-b]pyrrole-1-yl]-1-(3,5-difluoro-benzyl)-2-oxo-ethyl]-2,2-diphenyl-acetamide]
< 5 µM: all assays above

O=C(N[C@@H](Cc1ccc(O)cc1)C(=O)N1CC[C@@H]2[C@H]1C(=O)CN2C(=O)c1csc2ccccc12)C(c1ccccc1)c1ccccc1 [Example 329, (3aR,6aS)-N-[(1S)-2-[4-(Benzo[b]thiophene-3-carbonyl)-6-oxo-hexahydro-pyrrolo[3,2-b]pyrrole-1-yl]-1-(4-hydroxy-benzyl)-2-oxo-ethyl]-2,2-diphenyl-acetamide]
< 5 µM: all assays above

O=C(N[C@@H](Cc1cccc(F)c1)C(=O)N1CC[C@@H]2[C@H]1C(=O)CN2C(=O)c1csc2ccccc12)C(c1ccccc1)c1ccccc1 [Example 315, (3aR,6aS)-N-[(1S)-2-[4-(Benzo[b]thiophene-3-carbonyl)-6-oxo-hexahydro-pyrrolo[3,2-b]pyrrole-1-yl]-1-(3-fluoro-benzyl)-2-oxo-ethyl]-2,2-diphenyl-acetamide]
< 5 µM: all assays above

Nc1ccc(C(=O)N2CC(=O)[C@@H]3[C@H]2CCN3C(=O)[C@H](Cc2ccc(O)cc2)NC(=O)c2cccc(Br)c2)cc1 [Example 310, (3aR,6aS)-N-[(1S)-2-[4-(4-Amino-benzoyl)-6-oxo-hexahydro-pyrrolo[3,2-b]pyrrole-1-yl]-1-(4-hydroxy-benzyl)-2-oxo-ethyl]-3-bromo-benzamide]
< 5 µM: human cathepsin B | Bovine cathepsin S

O=C(N[C@@H](Cc1ccc(O)cc1)C(=O)N1CC[C@@H]2[C@H]1C(=O)CN2C(=O)c1csc2ccccc12)c1cccc(Br)c1 [Example 323, (3aR,6aS)-N-[(1S)-2-[4-(Benzo[b]thiophene-3-carbonyl)-6-oxo-hexahydro-pyrrolo[3,2-b]pyrrole-1-yl]-1-(4-hydroxy-benzyl)-2-oxo-ethyl]-3-bromo-benzamide]
< 5 µM: human cathepsin B | Wild-type cruzipain | Bovine cathepsin S

CC(C)C[C@H](NC(=O)c1ccc(Oc2ccccc2)cc1)C(=O)N1CC[C@@H]2[C@H]1C(=O)CN2C(=O)c1ccccc1 [Example 39, (3aR,6aS)-N-[(1S)-1-(4-Benzoyl-6-oxo-hexahydro-pyrrolo[3,2-b]pyrrole-1-carbonyl)-3-methyl-butyl]-4-phenoxy-benzamide]
< 5 µM: all assays above

O=C(N[C@@H](Cc1ccc(O)cc1)C(=O)N1CC[C@@H]2[C@H]1C(=O)CN2C(=O)c1ccccc1)C(c1ccccc1)c1ccccc1 [Example 330, (3aR,6aS)-N-[(1S)-2-(4-Benzoyl-6-oxo-hexahydro-pyrrolo[3,2-b]pyrrol-1-yl)-1-(4-hydroxy-benzyl)-2-oxo-ethyl]-2,2-diphenyl-acetamide]
< 5 µM: all assays above

Cc1cccc(C[C@H](NC(=O)C(c2ccccc2)c2ccccc2)C(=O)N2CC[C@@H]3[C@H]2C(=O)CN3C(=O)c2csc3ccccc23)c1 [Example 314]
< 5 µM: all assays above

O=C(N[C@@H](Cc1ccc(O)cc1)C(=O)N1CC[C@@H]2[C@H]1C(=O)CN2C(=O)c1ccccc1)c1cccc(Br)c1 [Example 298, (3aR,6aS)-N-[(1S)-2-(4-Benzoyl-6-oxo-hexahydro-pyrrolo[3,2-b]pyrrol-1-yl)-1-(4-hydroxy-benzyl)-2-oxo-ethyl]-3-bromo-benzamide]
< 5 µM: human cathepsin B | Wild-type cruzipain | Bovine cathepsin S

CC(C)C[C@H](NC(=O)c1ccc(N)cc1)C(=O)N1CC[C@@H]2[C@H]1C(=O)CN2C(=O)c1cccc(S(C)(=O)=O)c1 [Example 61, (3aR,6aS)-4-Amino-N-{(1S)-1-[4-(3-methanesulfonyl-benzoyl)-6-oxo-hexahydro-pyrrolo[3,2-b]pyrrole-1-carbonyl]-3-methyl-butyl}-benzamide]
< 5 µM: human cathepsin B | Wild-type cruzipain | Bovine cathepsin S
